Measured values reported in PubChem BioAssay (NCI).
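Results reflect a 48-hour exposure of cells in 96-well plates to compound at five concentrations. Definition used: TGI = concentration required for complete inhibition of growth.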

How the values were obtained:
Test in all cases: inhibition of tumour cell growth, NCI panel, 48 h
786-0 renal = tested on: 786-0 renal
A498 renal = tested on: A498 renal
A549 NSCLC = tested on: A549 NSCLC
ACHN renal = tested on: ACHN renal
CAKI-1 renal = tested on: CAKI-1 renal
CCRF-CEM leukemia = tested on: CCRF-CEM leukemia
COLO 205 colon = tested on: COLO 205 colon
DLD-1 colon = tested on: DLD-1 colon
DMS 273 small cell lung = tested on: DMS 273 small cell lung
EKVX NSCLC = tested on: EKVX NSCLC
HCC-2998 colon = tested on: HCC-2998 colon
HCT-116 colon = tested on: HCT-116 colon
HCT-15 colon = tested on: HCT-15 colon
HL-60(TB) leukemia = tested on: HL-60(TB) leukemia
HOP-18 NSCLC = tested on: HOP-18 NSCLC
HOP-62 NSCLC = tested on: HOP-62 NSCLC
HOP-92 NSCLC = tested on: HOP-92 NSCLC
HT29 colon = tested on: HT29 colon
IGROV1 ovarian = tested on: IGROV1 ovarian
K-562 leukemia = tested on: K-562 leukemia
KM12 colon = tested on: KM12 colon
KM20L2 colon = tested on: KM20L2 colon
LOX IMVI melanoma = tested on: LOX IMVI melanoma
LXFL 529 NSCLC = tested on: LXFL 529 NSCLC
M14 melanoma = tested on: M14 melanoma
M19-MEL melanoma = tested on: M19-MEL melanoma
MALME-3M melanoma = tested on: MALME-3M melanoma
MOLT-4 leukemia = tested on: MOLT-4 leukemia
NCI-H226 lung = tested on: NCI-H226 lung
NCI-H23 lung = tested on: NCI-H23 lung
NCI-H460 lung = tested on: NCI-H460 lung
NCI-H522 lung = tested on: NCI-H522 lung
OVCAR-3 ovarian = tested on: OVCAR-3 ovarian
OVCAR-4 ovarian = tested on: OVCAR-4 ovarian
OVCAR-5 ovarian = tested on: OVCAR-5 ovarian
OVCAR-8 ovarian = tested on: OVCAR-8 ovarian
RPMI-8226 leukemia = tested on: RPMI-8226 leukemia
RXF 393 renal = tested on: RXF 393 renal
SF-268 CNS = tested on: SF-268 CNS
SF-295 CNS = tested on: SF-295 CNS
SF-539 CNS = tested on: SF-539 CNS
SK-MEL-2 melanoma = tested on: SK-MEL-2 melanoma
SK-MEL-28 melanoma = tested on: SK-MEL-28 melanoma
SK-MEL-5 melanoma = tested on: SK-MEL-5 melanoma
SK-OV-3 ovarian = tested on: SK-OV-3 ovarian
SN12C renal = tested on: SN12C renal
SNB-19 CNS = tested on: SNB-19 CNS
SNB-75 CNS = tested on: SNB-75 CNS
SNB-78 CNS = tested on: SNB-78 CNS
SW-620 colon = tested on: SW-620 colon
TK-10 renal = tested on: TK-10 renal
U251 CNS = tested on: U251 CNS
UACC-257 melanoma = tested on: UACC-257 melanoma
UO-31 renal = tested on: UO-31 renal
XF 498 CNS = tested on: XF 498 CNS

SMILES: O=C1Cc2c([nH]c3ccccc23)-c2ccccc2N1
- TGI (786-0 renal): > 100 µM
- TGI (A498 renal): > 100 µM
- TGI (A549 NSCLC): > 100 µM
- TGI (ACHN renal): > 100 µM
- TGI (CAKI-1 renal): > 100 µM
- TGI (CCRF-CEM leukemia): > 100 µM
- TGI (COLO 205 colon): 45.9 µM
- TGI (DLD-1 colon): > 100 µM
- TGI (DMS 273 small cell lung): > 100 µM
- TGI (EKVX NSCLC): > 100 µM
- TGI (HCC-2998 colon): 41.2 µM
- TGI (HCT-116 colon): 31.9 µM
- TGI (HCT-15 colon): > 100 µM
- TGI (HL-60(TB) leukemia): > 100 µM
- TGI (HOP-18 NSCLC): > 100 µM
- TGI (HOP-62 NSCLC): 97.7 µM
- TGI (HOP-92 NSCLC): > 100 µM
- TGI (HT29 colon): 69 µM
- TGI (IGROV1 ovarian): 70.8 µM
- TGI (K-562 leukemia): > 100 µM
- TGI (KM12 colon): 45.2 µM
- TGI (KM20L2 colon): 50.7 µM
- TGI (LOX IMVI melanoma): 37.7 µM
- TGI (LXFL 529 NSCLC): > 100 µM
- TGI (M14 melanoma): > 100 µM
- TGI (M19-MEL melanoma): > 100 µM
- TGI (MALME-3M melanoma): > 100 µM
- TGI (MOLT-4 leukemia): 94.3 µM
- TGI (NCI-H226 lung): > 100 µM
- TGI (NCI-H23 lung): 61.1 µM
- TGI (NCI-H460 lung): > 100 µM
- TGI (NCI-H522 lung): 62.6 µM
- TGI (OVCAR-3 ovarian): 68.2 µM
- TGI (OVCAR-4 ovarian): > 100 µM
- TGI (OVCAR-5 ovarian): 67.4 µM
- TGI (OVCAR-8 ovarian): > 100 µM
- TGI (RPMI-8226 leukemia): > 100 µM
- TGI (RXF 393 renal): 40.7 µM
- TGI (SF-268 CNS): > 100 µM
- TGI (SF-295 CNS): > 100 µM
- TGI (SF-539 CNS): 55.2 µM
- TGI (SK-MEL-2 melanoma): > 100 µM
- TGI (SK-MEL-28 melanoma): > 100 µM
- TGI (SK-MEL-5 melanoma): > 100 µM
- TGI (SK-OV-3 ovarian): > 100 µM
- TGI (SN12C renal): > 100 µM
- TGI (SNB-19 CNS): > 100 µM
- TGI (SNB-75 CNS): > 100 µM
- TGI (SNB-78 CNS): > 100 µM
- TGI (SW-620 colon): 66.7 µM
- TGI (TK-10 renal): > 100 µM
- TGI (U251 CNS): > 100 µM
- TGI (UACC-257 melanoma): > 100 µM
- TGI (UO-31 renal): > 100 µM
- TGI (XF 498 CNS): 91.8 µM
